Columns and labels:
[1] = target: T1, Phosphatidylinositol 4,5-bisphosphate 3-kinase catalytic subunit gamma isoform (Homo sapiens, UniProt P48736); assay: Inhibition of PI3Kgamma (unknown origin) using PIP2 as substrate measured after 15 mins in presence of [33P]-ATP by liquid scintillation counting method
[2] = target: T1, Phosphatidylinositol 4,5-bisphosphate 3-kinase catalytic subunit gamma isoform; assay: Inhibition of PI3Kgamma in human THP-1 cells assessed as reduction in Akt phosphorylation at Ser473 residue; type: cell-based
[3] = target: Cyclin-dependent kinase 2 (Homo sapiens, UniProt P24941); assay: Inhibition of CDK2 (unknown origin)
[4] = target: T2, Receptor-type tyrosine-protein kinase FLT3 (Homo sapiens, UniProt P36888); assay: Inhibition of FLT3 (unknown origin)
T2 sequence (P36888 whole entry): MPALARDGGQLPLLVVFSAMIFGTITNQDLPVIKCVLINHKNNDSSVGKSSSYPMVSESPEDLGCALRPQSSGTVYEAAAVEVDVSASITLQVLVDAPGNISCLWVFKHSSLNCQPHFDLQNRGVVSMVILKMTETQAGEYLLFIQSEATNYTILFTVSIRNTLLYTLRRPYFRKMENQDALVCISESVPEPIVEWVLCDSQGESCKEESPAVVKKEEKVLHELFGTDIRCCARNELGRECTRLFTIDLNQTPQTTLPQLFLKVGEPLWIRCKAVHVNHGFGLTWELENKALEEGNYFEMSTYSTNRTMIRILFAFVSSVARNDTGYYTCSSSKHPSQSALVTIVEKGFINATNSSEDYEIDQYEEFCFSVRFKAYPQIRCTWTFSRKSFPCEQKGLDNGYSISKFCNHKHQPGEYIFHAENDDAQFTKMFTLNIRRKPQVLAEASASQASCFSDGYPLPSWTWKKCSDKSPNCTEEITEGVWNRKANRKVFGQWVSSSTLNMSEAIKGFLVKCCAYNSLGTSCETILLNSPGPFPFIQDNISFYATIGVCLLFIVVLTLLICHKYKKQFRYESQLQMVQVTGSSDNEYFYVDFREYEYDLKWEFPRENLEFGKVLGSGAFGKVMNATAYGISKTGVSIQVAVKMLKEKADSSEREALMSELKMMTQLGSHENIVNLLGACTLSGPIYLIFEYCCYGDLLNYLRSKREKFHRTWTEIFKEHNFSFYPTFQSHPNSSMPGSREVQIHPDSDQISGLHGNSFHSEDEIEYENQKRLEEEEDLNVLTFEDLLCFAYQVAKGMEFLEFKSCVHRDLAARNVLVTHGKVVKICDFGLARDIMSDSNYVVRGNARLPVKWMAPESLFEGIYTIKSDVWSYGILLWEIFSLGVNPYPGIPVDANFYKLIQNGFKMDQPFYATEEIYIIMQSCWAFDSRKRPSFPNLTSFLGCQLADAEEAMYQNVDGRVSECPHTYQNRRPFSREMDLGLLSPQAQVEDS

[5] = target: Glycogen synthase kinase-3 beta (Homo sapiens, UniProt P49841); assay: Inhibition of GSK3B (unknown origin)
[6] = target: T3, Interleukin-1 receptor-associated kinase 4 (Homo sapiens, UniProt Q9NWZ3); assay: Inhibition of IRAK4 (unknown origin)
T3 sequence (Q9NWZ3 whole entry): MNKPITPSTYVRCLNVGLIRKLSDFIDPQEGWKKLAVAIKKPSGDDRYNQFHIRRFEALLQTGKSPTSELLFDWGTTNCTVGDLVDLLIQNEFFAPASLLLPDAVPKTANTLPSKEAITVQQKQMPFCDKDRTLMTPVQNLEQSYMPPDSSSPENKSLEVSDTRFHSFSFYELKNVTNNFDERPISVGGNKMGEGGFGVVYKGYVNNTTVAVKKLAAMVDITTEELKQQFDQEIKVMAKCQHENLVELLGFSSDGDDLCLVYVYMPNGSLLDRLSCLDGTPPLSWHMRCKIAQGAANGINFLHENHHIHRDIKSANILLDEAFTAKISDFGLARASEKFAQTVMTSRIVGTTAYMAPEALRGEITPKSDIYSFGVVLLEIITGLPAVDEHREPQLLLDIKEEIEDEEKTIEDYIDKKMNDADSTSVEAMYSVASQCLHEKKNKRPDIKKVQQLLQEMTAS

[7] = target: Tyrosine-protein kinase JAK2 (Homo sapiens, UniProt O60674); assay: Inhibition of JAK2 (unknown origin)
[8] = target: Mitogen-activated protein kinase 10 (Homo sapiens, UniProt P53779); assay: Inhibition of JNK3 (unknown origin)
[9] = target: Vascular endothelial growth factor receptor 2 (Homo sapiens, UniProt P35968); assay: Inhibition of KDR (unknown origin)
[10] = target: Serine/threonine-protein kinase PLK1 (Homo sapiens, UniProt P53350); assay: Inhibition of PLK1 (unknown origin)
[11] = target: Rho-associated protein kinase 1 (Homo sapiens, UniProt Q13464); assay: Inhibition of ROCK1 (unknown origin)
[12] = target: Proto-oncogene tyrosine-protein kinase Src (Homo sapiens, UniProt P12931); assay: Inhibition of SRC (unknown origin)
[13] = target: Tyrosine-protein kinase SYK (Homo sapiens, UniProt P43405); assay: Inhibition of SYK (unknown origin)
Mus musculus = assay: Antiinflammatory activity against Balb/c mouse air pouch model assessed as decrease in IL-8 stimulated neutrophil recruitment in air pouch at 50 mg/kg, po treated for 1 hr prior to IL-8 administration and measured after 4 hrs by FACS analysis; type: functional; conditions: time 5 hrs
[14] = target: Phosphatidylinositol 4,5-bisphosphate 3-kinase catalytic subunit alpha isoform (Homo sapiens, UniProt P42336); assay: Inhibition of PI3Kalpha (unknown origin) using PIP2 as substrate measured after 15 mins in presence of [33P]-ATP by liquid scintillation counting method

Chain of Proto-oncogene tyrosine-protein kinase Src (P12931 2-536 limits assumed): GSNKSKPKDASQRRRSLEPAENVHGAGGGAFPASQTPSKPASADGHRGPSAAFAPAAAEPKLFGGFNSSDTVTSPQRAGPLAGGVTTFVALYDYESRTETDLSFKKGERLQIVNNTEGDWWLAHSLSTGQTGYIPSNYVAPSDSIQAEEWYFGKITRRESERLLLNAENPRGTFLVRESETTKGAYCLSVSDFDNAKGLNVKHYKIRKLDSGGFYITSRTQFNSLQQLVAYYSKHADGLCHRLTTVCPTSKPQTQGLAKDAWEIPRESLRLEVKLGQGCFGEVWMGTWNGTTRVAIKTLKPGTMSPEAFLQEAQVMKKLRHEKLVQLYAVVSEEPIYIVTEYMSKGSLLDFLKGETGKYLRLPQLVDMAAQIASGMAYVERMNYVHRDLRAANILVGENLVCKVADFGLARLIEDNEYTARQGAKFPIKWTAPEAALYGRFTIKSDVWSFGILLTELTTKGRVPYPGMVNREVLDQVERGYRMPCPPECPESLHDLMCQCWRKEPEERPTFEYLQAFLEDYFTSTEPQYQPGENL
T1 sequence (P48736 whole entry, canonical isoform): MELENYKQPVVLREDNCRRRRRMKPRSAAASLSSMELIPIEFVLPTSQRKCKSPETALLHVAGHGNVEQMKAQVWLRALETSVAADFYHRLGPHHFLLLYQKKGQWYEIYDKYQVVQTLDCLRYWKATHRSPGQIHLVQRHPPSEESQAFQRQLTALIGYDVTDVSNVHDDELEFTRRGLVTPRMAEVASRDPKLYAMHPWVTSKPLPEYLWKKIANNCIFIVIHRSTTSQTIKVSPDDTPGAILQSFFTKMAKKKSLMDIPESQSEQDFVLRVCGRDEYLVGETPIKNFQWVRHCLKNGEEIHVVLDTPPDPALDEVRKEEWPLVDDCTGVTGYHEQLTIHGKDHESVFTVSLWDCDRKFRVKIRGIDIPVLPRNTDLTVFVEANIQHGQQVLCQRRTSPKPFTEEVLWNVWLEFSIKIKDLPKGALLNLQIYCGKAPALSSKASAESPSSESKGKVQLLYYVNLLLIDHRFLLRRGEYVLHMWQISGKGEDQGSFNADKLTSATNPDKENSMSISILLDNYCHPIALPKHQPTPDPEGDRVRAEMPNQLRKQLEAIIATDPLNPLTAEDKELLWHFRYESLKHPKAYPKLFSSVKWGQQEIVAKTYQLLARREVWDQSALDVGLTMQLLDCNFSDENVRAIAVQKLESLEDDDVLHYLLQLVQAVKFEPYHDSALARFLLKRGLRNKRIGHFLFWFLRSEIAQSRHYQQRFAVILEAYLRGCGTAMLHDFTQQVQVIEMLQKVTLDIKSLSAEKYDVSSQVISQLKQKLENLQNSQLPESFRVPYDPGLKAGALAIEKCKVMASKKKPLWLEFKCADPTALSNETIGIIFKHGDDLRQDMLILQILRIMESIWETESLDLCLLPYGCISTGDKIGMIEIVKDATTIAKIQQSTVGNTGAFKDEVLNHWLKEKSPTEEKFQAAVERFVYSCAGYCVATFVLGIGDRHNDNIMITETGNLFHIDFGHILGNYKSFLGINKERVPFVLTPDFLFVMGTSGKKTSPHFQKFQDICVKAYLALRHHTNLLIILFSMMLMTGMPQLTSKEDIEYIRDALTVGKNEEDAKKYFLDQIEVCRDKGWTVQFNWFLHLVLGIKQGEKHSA
Chain of Serine/threonine-protein kinase PLK1 (P53350 whole entry): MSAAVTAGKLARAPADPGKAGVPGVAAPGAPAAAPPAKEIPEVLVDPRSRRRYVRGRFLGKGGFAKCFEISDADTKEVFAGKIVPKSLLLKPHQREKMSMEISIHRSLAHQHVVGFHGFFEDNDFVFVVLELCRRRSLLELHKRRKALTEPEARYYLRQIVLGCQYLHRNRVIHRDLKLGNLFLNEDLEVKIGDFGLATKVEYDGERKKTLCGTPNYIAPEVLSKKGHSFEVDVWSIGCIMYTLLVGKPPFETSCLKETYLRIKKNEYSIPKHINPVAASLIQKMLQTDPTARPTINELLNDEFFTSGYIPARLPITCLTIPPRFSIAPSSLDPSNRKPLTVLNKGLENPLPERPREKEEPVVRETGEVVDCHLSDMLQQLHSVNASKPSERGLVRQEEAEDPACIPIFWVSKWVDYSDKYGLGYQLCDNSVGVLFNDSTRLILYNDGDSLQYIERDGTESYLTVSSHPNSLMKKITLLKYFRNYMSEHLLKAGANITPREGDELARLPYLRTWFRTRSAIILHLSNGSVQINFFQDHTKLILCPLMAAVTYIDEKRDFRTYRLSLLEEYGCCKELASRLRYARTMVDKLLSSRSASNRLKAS
Chain of Mitogen-activated protein kinase 10 (P53779 whole entry): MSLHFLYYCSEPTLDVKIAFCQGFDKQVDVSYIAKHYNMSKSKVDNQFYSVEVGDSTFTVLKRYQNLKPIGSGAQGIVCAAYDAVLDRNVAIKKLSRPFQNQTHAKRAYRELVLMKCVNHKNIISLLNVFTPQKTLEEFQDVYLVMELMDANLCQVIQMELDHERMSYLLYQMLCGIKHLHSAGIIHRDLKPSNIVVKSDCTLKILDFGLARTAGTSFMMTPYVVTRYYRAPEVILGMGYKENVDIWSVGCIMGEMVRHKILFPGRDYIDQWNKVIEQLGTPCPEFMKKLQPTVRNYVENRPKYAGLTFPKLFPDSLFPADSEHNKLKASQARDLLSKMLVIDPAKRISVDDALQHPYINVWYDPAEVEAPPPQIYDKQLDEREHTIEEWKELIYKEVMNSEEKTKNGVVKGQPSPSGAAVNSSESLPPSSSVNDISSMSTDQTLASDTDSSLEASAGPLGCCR
Chain of Glycogen synthase kinase-3 beta (P49841 whole entry): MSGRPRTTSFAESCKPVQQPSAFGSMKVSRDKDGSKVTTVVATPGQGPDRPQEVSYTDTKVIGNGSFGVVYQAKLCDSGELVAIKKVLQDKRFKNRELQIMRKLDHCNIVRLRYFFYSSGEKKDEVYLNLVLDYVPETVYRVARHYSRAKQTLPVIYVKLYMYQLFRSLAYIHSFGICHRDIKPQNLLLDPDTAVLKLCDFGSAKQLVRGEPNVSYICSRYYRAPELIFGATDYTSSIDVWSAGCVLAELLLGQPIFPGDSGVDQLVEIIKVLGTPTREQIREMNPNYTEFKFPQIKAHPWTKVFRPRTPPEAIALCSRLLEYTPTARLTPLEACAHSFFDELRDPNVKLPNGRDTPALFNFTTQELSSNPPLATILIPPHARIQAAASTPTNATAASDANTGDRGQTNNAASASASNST
Chain of Tyrosine-protein kinase JAK2 (O60674 whole entry): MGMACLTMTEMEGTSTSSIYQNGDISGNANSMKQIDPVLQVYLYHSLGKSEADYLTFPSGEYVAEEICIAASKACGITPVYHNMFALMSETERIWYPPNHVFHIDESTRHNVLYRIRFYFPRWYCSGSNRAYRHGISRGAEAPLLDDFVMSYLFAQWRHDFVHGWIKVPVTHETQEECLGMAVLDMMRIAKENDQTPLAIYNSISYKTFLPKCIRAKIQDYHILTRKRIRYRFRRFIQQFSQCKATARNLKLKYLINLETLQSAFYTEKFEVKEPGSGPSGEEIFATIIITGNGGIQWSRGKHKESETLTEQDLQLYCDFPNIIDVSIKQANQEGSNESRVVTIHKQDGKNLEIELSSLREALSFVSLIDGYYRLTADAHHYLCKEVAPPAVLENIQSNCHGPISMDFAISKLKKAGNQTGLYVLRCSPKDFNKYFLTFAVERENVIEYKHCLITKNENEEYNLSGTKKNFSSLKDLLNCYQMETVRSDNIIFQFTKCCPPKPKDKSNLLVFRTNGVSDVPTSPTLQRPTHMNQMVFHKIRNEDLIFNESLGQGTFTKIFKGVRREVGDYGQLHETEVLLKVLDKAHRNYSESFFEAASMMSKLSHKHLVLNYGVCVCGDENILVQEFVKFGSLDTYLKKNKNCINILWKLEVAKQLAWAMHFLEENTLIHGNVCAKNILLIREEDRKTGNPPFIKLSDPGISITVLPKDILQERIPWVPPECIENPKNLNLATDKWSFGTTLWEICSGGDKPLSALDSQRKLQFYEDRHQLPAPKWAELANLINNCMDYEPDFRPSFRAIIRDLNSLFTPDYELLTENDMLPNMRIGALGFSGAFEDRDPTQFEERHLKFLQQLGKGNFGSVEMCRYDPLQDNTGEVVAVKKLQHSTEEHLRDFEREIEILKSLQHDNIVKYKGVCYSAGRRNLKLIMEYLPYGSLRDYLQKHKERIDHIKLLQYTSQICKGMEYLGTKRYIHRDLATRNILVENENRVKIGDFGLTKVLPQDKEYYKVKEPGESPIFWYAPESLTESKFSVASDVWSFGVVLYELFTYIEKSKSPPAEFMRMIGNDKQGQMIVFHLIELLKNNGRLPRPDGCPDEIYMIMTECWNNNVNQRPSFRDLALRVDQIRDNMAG

Q: COCCNC(=O)Nc1nc(C)c(C#Cc2ccncc2)s1 was tested. Which Ki [1] did it give?
A: 0.043 µM

Q: What about the IC50 [2] of the same compound?
A: 0.76 µM

Q: What does the source list for CCCOCCNC(=O)Nc1nc(C)c(C#Cc2ccncc2)s1?
A: Ki [1]: 0.006 µM; IC50 [2]: 0.23 µM

Q: With Cc1nc(NC(=O)NCCOCC2CC2)sc1C#Cc1cnc2ncccc2c1 as the compound, how does the Ki [1] read?
A: 0.045 µM

Q: What about the IC50 [2] of the same compound?
A: > 10 µM

Q: For CCOCCNC(=O)Nc1nc(C)c(C#Cc2ccncc2)s1, which Ki [1] is on record?
A: 0.042 µM

Q: What about the IC50 [2] of the same compound?
A: 0.56 µM

Q: For COc1cc(C#Cc2sc(NC(=O)NCCOCC3CC3)nc2C)cnc1OC, which Ki [1] is on record?
A: 0.003 µM

Q: What about the IC50 [2] of the same compound?
A: 0.18 µM

Q: What about the Ki [3] of the same compound?
A: > 4 µM

Q: And the Ki [4]?
A: > 4 µM

Q: And the Ki [5]?
A: > 4 µM

Q: What about the Ki [6] of the same compound?
A: > 4 µM

Q: And the Ki [7]?
A: > 4 µM

Q: What about the Ki [8] of the same compound?
A: > 4 µM

Q: What about the Ki [9] of the same compound?
A: > 4 µM

Q: And the Ki [10]?
A: > 4 µM

Q: And the Ki [11]?
A: > 4 µM

Q: And the Ki [12]?
A: > 4 µM

Q: And the Ki [13]?
A: > 4 µM

Q: What about the inhibition in vivo at 50 mg/kg (Mus musculus) of the same compound?
A: 85%

Q: What does the source list for Cc1nc(NC(=O)NCCOCC2CC2)sc1C#Cc1ccnc2ccccc12?
A: Ki [1]: 0.006 µM; IC50 [2]: 0.29 µM

Q: Which results are given for Cc1nc(NC(=O)NCCOCC2CC2)sc1C#Cc1ccc2cncn2c1?
A: Ki [3]: > 4 µM; Ki [4]: > 4 µM; Ki [5]: > 4 µM; Ki [6]: > 4 µM; Ki [7]: > 4 µM; Ki [8]: > 4 µM; Ki [9]: > 4 µM; Ki [10]: > 4 µM; Ki [11]: > 4 µM; Ki [12]: > 4 µM; Ki [13]: > 4 µM

Q: For Cc1nc(NC(=O)NCCc2cn(CC(F)F)cn2)sc1C#Cc1cccnc1, which Ki [1] is on record?
A: 0.004 µM

Q: What about the Ki [14] of the same compound?
A: 0.252 µM

Q: What about the IC50 [2] of the same compound?
A: 0.13 µM

Q: What about the Ki [3] of the same compound?
A: > 4 µM

Q: And the Ki [4]?
A: > 4 µM

Q: What about the Ki [5] of the same compound?
A: > 4 µM

Q: What about the Ki [6] of the same compound?
A: > 4 µM

Q: And the Ki [7]?
A: > 4 µM

Q: What about the Ki [8] of the same compound?
A: > 4 µM

Q: What about the Ki [9] of the same compound?
A: > 4 µM

Q: And the Ki [10]?
A: > 4 µM

Q: What about the Ki [11] of the same compound?
A: > 4 µM

Q: What about the Ki [12] of the same compound?
A: > 4 µM

Q: And the Ki [13]?
A: > 4 µM

Q: Cc1nc(NC(=O)NCCOCC2CC2)sc1C#Cc1ccnc(F)c1 was tested. Which Ki [1] did it give?
A: 0.006 µM

Q: And the IC50 [2]?
A: 0.49 µM

Source: ChEMBL document CHEMBL4673392, “Discovery of a Novel Series of Potent and Selective Alkynylthiazole-Derived PI3Kγ Inhibitors” (ACS Med Chem Lett, 2021)
